Laboratory results published in paper PMC9891166, “Derivatives of 4-methyl-1,2,3-benzoxathiazine 2,2-dioxide as selective inhibitors of human carbonic anhydrases IX and XII over the cytosolic isoforms I and II” (Journal of Enzyme Inhibition and Medicinal Chemistry, 2023).
Where two headings read alike, the source gives them in different places.

What was measured:
Test in all cases: stopped-flow CO2 hydration assay
Format in all cases: biochemical
hCA I = target: T1, hCA I (Homo sapiens, UniProt P00915); details: read-out: KI (nM)^a,b / hCA I
T1 construct: gene CA1; recombinant, obtained in-house as reported earlier; cytosolic
Description: stopped-flow CO2 hydration assay on hCA I

hCA II [1] = target: T2, hCA II (Homo sapiens, UniProt P00918); details: read-out: KI (nM)^a,b / hCA I
T2 construct: gene CA2; recombinant, obtained in-house as reported earlier; cytosolic

hCA II [2] = target: T2, hCA II; details: read-out: KI (nM)^a,b / hCA II
Description: stopped-flow CO2 hydration assay on hCA II

T1 sequence (P00915 2-261): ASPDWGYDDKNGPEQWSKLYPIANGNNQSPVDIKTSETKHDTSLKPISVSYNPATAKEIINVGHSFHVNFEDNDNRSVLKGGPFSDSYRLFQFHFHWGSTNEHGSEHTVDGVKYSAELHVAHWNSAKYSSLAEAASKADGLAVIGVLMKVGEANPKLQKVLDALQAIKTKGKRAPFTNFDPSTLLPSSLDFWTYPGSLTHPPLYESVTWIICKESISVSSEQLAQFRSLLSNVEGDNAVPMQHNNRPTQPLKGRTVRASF

SMILES	Ki (hCA I)	Ki (hCA II [1])	Ki (hCA II [2])
COc1cccc2c1C(C)=NS(=O)(=O)O2 [2a, 5-Methoxy-4-methyl-1,2,3-benzoxathiazine 2,2-dioxide]	> 100000 nM	> 100000 nM	
CC1=NS(=O)(=O)Oc2ccc(C)cc21 [2b, 4,6-Dimethyl-1,2,3-benzoxathiazine 2,2-dioxide]	21000 nM		457 nM
CC1=NS(=O)(=O)Oc2ccc(F)cc21 [2c, 6-Fluoro-4-methyl-1,2,3-benzoxathiazine 2,2-dioxide]	12400 nM		229 nM
CC1=NS(=O)(=O)Oc2ccc(Cl)cc21 [2d, 6-Chloro-4-methyl-1,2,3-benzoxathiazine 2,2-dioxide]	45700 nM		634 nM
CC1=NS(=O)(=O)Oc2ccc(Br)cc21 [2e, 6-Bromo-4-methyl-1,2,3-benzoxathiazine 2,2-dioxide]	> 100000 nM		5570 nM
CC1=NS(=O)(=O)Oc2cc(C)ccc21 [2f, 4,7-Dimethyl-1,2,3-benzoxathiazine 2,2-dioxide]	33200 nM		788 nM
COc1ccc2c(c1)OS(=O)(=O)N=C2C [2g, 7-Methoxy-4-methyl-1,2,3-benzoxathiazine 2,2-dioxide]	24900 nM		559 nM
CC1=NS(=O)(=O)Oc2cc(F)ccc21 [2h, 7-Fluoro-4-methyl-1,2,3-benzoxathiazine 2,2-dioxide]	10500 nM		284 nM
CC1=NS(=O)(=O)Oc2cc(Cl)ccc21 [2i, 7-Chloro-4-methyl-1,2,3-benzoxathiazine 2,2-dioxide]	82100 nM		1660 nM
CC1=NS(=O)(=O)Oc2cc(Br)ccc21 [2j, 7-Bromo-4-methyl-1,2,3-benzoxathiazine 2,2-dioxide]	> 100000 nM		11500 nM
CC1=NS(=O)(=O)Oc2ccc(-c3ccccc3)cc21 [5a, 4-Methyl-6-phenyl-1,2,3-benzoxathiazine 2,2-dioxide]	60600 nM		936 nM
CC1=NS(=O)(=O)Oc2ccc(-c3ccc(F)cc3)cc21 [5b, 6–(4-Fluorophenyl)-4-methyl-1,2,3-benzoxathiazine 2,2-dioxide]	24500 nM		1530 nM
COc1ccc(-c2ccc3c(c2)C(C)=NS(=O)(=O)O3)cc1 [5c, 6–(4-Methoxyphenyl)-4-methyl-1,2,3-benzoxathiazine 2,2-dioxide]	70500 nM		7120 nM
CC1=NS(=O)(=O)Oc2ccc(-c3ccc(Cl)c(Cl)c3)cc21 [5d, 6–(3,4-Dichlorophenyl)-4-methyl-1,2,3-benzoxathiazine 2,2-dioxide]	> 100000 nM		4530 nM
CCOC(=O)c1ccc(-c2ccc3c(c2)C(C)=NS(=O)(=O)O3)cc1 [5e, Ethyl 4–(4-methyl-2,2-dioxido-1,2,3-benzoxathiazin-6-yl)benzoate]	19600 nM		8250 nM
CC1=NS(=O)(=O)Oc2cc(-c3ccccc3)ccc21 [5f, 4-Methyl-7-phenyl-1,2,3-benzoxathiazine 2,2-dioxide]	> 100000 nM		2360 nM
CC1=NS(=O)(=O)Oc2cc(-c3ccc(F)cc3)ccc21 [5g, 7–(4-Fluorophenyl)-4-methyl-1,2,3-benzoxathiazine 2,2-dioxide]	> 100000 nM		5370 nM
COc1ccc(-c2ccc3c(c2)OS(=O)(=O)N=C3C)cc1 [5h, 7–(4-Methoxyphenyl)-4-methyl-1,2,3-benzoxathiazine 2,2-dioxide]	> 100000 nM		3170 nM
CC1=NS(=O)(=O)Oc2cc(-c3ccc(Cl)c(Cl)c3)ccc21 [5i, 7–(3,4-Dichlorophenyl)-4-methyl-1,2,3-benzoxathiazine 2,2-dioxide]	> 100000 nM		10000 nM
CCOC(=O)c1ccc(-c2ccc3c(c2)OS(=O)(=O)N=C3C)cc1 [5j, Ethyl 4–(4-methyl-2,2-dioxido-1,2,3-benzoxathiazin-7-yl)benzoate]	> 100000 nM		6780 nM
